Entries after “also recorded” stand apart in the source; their conditions may differ.
Experiment: Dynamic vapor sorption test
Type: physicochemical
Conditions: 25° C.; for weight increased finally: 95% RH; for sensitivity to moisture / hygroscopicity: dynamic vapor sorption isotherm, 0-95% RH
Procedure: 2. Parameters of dynamic vapor sorption test: The instrument: a dynamic moisture absorption analyzer (DVS Advantage, Surface Measurement System Ltd); Experimental temperature: 25° C.; Adsorption range: 0-95% relative humidity; Step interval: 5% relative humidity; Balance standard of weight gain: less than 0.01% weight change in 5 minutes; Longest time of balance: 120 minutes.

Row | Structure (SMILES) | weight increased finally | sensitivity to moisture / hygroscopicity | moisture absorbed (relative humidity 50%) | moisture absorbed (weight gain against dry weight) (relative humidity increased from 0% to 85% RH) [%]
1 | OC[C@H]1O[C@@H](c2ccc(Cl)c(Cc3ccc(OCC4(F)COC4)cc3)c2)[C@H](O)[C@@H](O)[C@@H]1O [compound A, (2S,3R,4R,5S,6R)-2-(4-chloro-3-(4-((3-fluorooxetan-3-yl)methoxy)benzyl)phenyl)-6-(hydroxymethyl)tetrahydro-2H-pyran-3,4,5-triol] | 14.72% | sensitive to moisture | about 4.8% | 
2 | OC[C@H]1O[C@@H](c2ccc(Cl)c(Cc3ccc(OCC4(F)COC4)cc3)c2)[C@H](O)[C@@H](O)[C@@H]1O [eutectic crystal of the complex formed by compound A and L-p] [complex of (2S,3R,4R,5S,6R)-2-(4-chloro-3-(4-((3-fluorooxetan-3-yl)methoxy)benzyl)phenyl)-6-(hydroxymethyl)tetrahydro-2H-pyran-3,4,5-triol and bis(L-proline)] | about 9.967% | not very sensitive to moisture; also recorded: low hygroscopicity |  | 2.174

From patent publication US9738603B2, “Complex of glucose derivative and proline, crystal, preparation method and use” (SHANGHAI YINGLI PHARMACEUTICAL CO., LTD., priority 2012, dated 2017)
